Assay results published in US7943606B2, “Compositions and methods to control abnormal cell growth” (CanCure Laboratories, LLC, priority 2005, dated 2011).

Legend:
[1] = Viability of MRC-5 normal lung fibroblasts (MTT assay); assay type: cell-based; details: human, MRC-5 normal lung fibroblasts; 30,000 cells per well (80-90% confluent), 72 hours, MTT; read-out: IC50 values, Cytotoxic, MRC-5
Protocol: (§1) To quantify cell death, around the time when significant and characteristic morphological changes took place, cells were pulse-labeled for 10 minutes with [^3H]thymidine to measure DNA activity as described elsewhere [Tomono, M. and Kiss, Z. (1995), “Ethanol enhances the stimulatory effects of insulin and insulin-like growth factor-I on DNA synthesis in NIH 3T3 fibroblasts,” Biochem. Biophys. Res. Commun. 208, 63-67]. Also, cells were collected as suspensions using trypsin, an established method in cell biology, followed by re-plating of cells in fresh tissue culture medium. If no viable cells were obtained after one week in culture, it meant that the cells at the time of re-plating were dead. Survival values obtained with untreated cells were considered 100%. For the determination of relative number of viable cells after treatments, in most cases the MTT assay was used. This calorimetric assay is based on the ability of living cells, but not dead cells, to reduce 3-(4,5-dimethyl thiazol-2-yl)-2,5-diphenyltetrazolium bromide [Carmichael, J, De Graff, W. G., Gazdar, A. F., Minna, J. D. and Mitchell, J. B. (1987), “Evaluation of tetrazolium-based semi-automated calorimetric assay: Assessment of chemosensitivity testing,” Cancer Res. 47, 936-942]. For this assay, cells were plated in 96-well plates, and the MTT assay was performed both in untreated and treated cell cultures. The MTT assay also was performed at the start of treatments to allow assessment of proliferation rates in the control and treated cell cultures.
(§2) The MRC-5 cell line is derived from normal lung tissue of a […] fetus. MRC-5 cells were maintained and treated in Eagles Medium with Hanks' BSS containing 10% fetal bovine serum. The T47D cells were maintained and treated in RPMI 1640 medium supplemented with 0.2 IU bovine insulin and 10% fetal bovine serum. The CaOV-3 human ovarian cancer cells were cultured in Dulbecco's modified Eagle's medium containing 10% fetal bovine serum. The cells were seeded in 96-well plates either at 10,000 cells per well or 30,000 cells per well to examine the antiproliferative and cytotoxic effects of various CC compounds, respectively. The cells were incubated for 24 hours, then the medium was changed followed by the treatments of cultures 2 hours after the medium change. At this point, cell cultures seeded at 10,000 cells per well and 30,000 cells per well were 25-35% and 80-90% confluent, respectively. Incubations were continued for 72 hours followed by the MTT assay. The data, shown in TABLE 2, indicate the inhibitory concentrations of CC compounds (IC50) required for 50% decrease in the number of viable cells. These numbers are calculated from the mean of 4 incubations in one experiment (the experiment was repeated once with similar results).

MRC-5 cells = experiment: as above; assay type: cell-based; details: Homo sapiens, MRC5; 10,000 cells per well (25-35% confluent), 72 hours, MTT; read-out: IC50 values, Antiproliferative, MRC-5
Protocol: as §1, §2

CaCO-2 cells = experiment: Viability of CaCO-2 colon adenocarcinoma cells (MTT assay); assay type: cell-based; details: Homo sapiens, Caco-2, 240 h, 10 days, read-out: reduction in the number of viable cells, CaCO-2
Protocol: To quantify cell death, around the time when significant and characteristic morphological changes took place, cells were pulse-labeled for 10 minutes with [^3H]thymidine to measure DNA activity as described elsewhere [Tomono, M. and Kiss, Z. (1995), “Ethanol enhances the stimulatory effects of insulin and insulin-like growth factor-I on DNA synthesis in NIH 3T3 fibroblasts,” Biochem. Biophys. Res. Commun. 208, 63-67]. Also, cells were collected as suspensions using trypsin, an established method in cell biology, followed by re-plating of cells in fresh tissue culture medium. If no viable cells were obtained after one week in culture, it meant that the cells at the time of re-plating were dead. Survival values obtained with untreated cells were considered 100%. For the determination of relative number of viable cells after treatments, in most cases the MTT assay was used. This calorimetric assay is based on the ability of living cells, but not dead cells, to reduce 3-(4,5-dimethyl thiazol-2-yl)-2,5-diphenyltetrazolium bromide [Carmichael, J, De Graff, W. G., Gazdar, A. F., Minna, J. D. and Mitchell, J. B. (1987), “Evaluation of tetrazolium-based semi-automated calorimetric assay: Assessment of chemosensitivity testing,” Cancer Res. 47, 936-942]. For this assay, cells were plated in 96-well plates, and the MTT assay was performed both in untreated and treated cell cultures. […]

choline transport = experiment: [14C]choline uptake and metabolism in AN3CA, MCF-7 and MEL-28 cancer cells; assay type: cell-based, human; details: 100 μM CCDTHT or 0.5 mM HC-3, 2 hours, each cell line
Protocol: MEL-28 and MCF-7 cells were cultured in MEM medium supplemented with 10% fetal bovine serum (FBS) and in DMEM medium supplemented with 10% FBS, respectively. The AN3CA human endometrial adenocarcinoma cells were maintained in Eagle's MEM containing 10% FBS. Cancer cells were grown up to confluency in 12-well plates in 10% fetal-bovine serum-containing medium, then incubated in the presence of 1 μCi of [methyl-^14C]choline (bought from Amersham; Piscataway, N.J.) for 2 hours. Cells were first rapidly (within 30 seconds) washed three times with 4 ml of serum-free medium, then extracted with ice-cold methanol. This was followed by the determination of cellular free radiolabeled choline and phosphocholine (PCho) by column chromatography as described earlier [Kiss, Z. and Crilly, K. S. (1995), “Tamoxifen inhibits uptake and metabolism of ethanolamine and choline in multidrug-resistant, but not in drug-sensitive, MCF-7 human breast carcinoma cells,” FEBS Lett. 360, 165-168], and the separation and determination of radiolabeled phosphatidylcholine (PtdCho) by thin layer chromatography as indicated in Kiss [Kiss, Z. (1996), “Direct proof that phorbol ester accelerates the use of choline phosphate for phosphatidylcholine synthesis in intact cells,” Arch. Biochem. Biophys. 335, 191-196].
MCF-7 and MEL-28 cells were cultured as described earlier. The AN3CA human endometrial adenocarcinoma cells were maintained in Eagle's MEM containing 10% FBS. Each cell type was grown in 12-well plates to confluency and then incubated with 1 μCi of [methyl-^14C]choline for 2 hours in the absence (□) or presence of 100 μM CCDTHT ? or 0.5 mM HC-3 (▪), followed by the determination of cellular contents of radiolabeled choline (A), PCho (B) and PtdCho (C), as indicated in FIG. 9. […] Thus, if both CCDTHT and HC-3 influenced cell viability solely via inhibition of choline metabolism, then these agents should similarly affect cell viability, at least at the concentrations used in the choline transport experiment.

## CC[N+](C)(CC)CCOCc1ccc2sc3ccccc3c(=O)c2c1.[I-] [CCDTHT, N,N-diethyl-N-methyl-2-[(9-oxo-9H-thioxanthen-2-yl)methoxy]-ethanaminium iodide]
[1]
  IC50 at 72 h: 119 µM
MRC-5 cells
  IC50: 90 µM
CaCO-2 cells
  cytotoxicity at 100 µM: ≤ 50%
Choline transport
  inhibitory effects on choline uptake and metabolism (choline, PCho, PtdCho): comparably strong inhibitory effects
